Reference: paper PMC2725396 (Clinical cancer research : an official journal of the …, 2008)
Several values for one entry are separate records, joined by “and”; a condition that tells them apart may be missing. Identical values can stand only once. Like-named read-outs stand apart in the source and are kept apart here.

Tests used:
[1] = tested on: BT474 human breast carcinoma xenografts; assay: BT474 xenograft tumor growth inhibition; type: in vivo, CB-17 SCID mice
[2] = tested on: patients with advanced solid tumors; assay: Phase I trial: MTD, DLTs and adverse events; type: in vivo, human
[3] = single agent, cited from earlier work
[4] = Phase I trial: plasma pharmacokinetics of topotecan and lapatinib; settings: for AUC(0-t) / Cmax / Topotecan CLp: n = 9, geometric mean and 95% CI; for Cmax: Topotecan Cmax; for half-life / Topotecan CLNRF / Topotecan Vss: geometric mean and 95% CI; for Topotecan CLNRF: CLp minus CLCR
BCRP [5] = target: T1, BCRP (Homo sapiens, UniProt Q9UNQ0); assay: Topotecan accumulation by flow microfluorimetry in MDA-MB-231/BCRP cells; type: cell-based
T1 sequence (Q9UNQ0 1-655): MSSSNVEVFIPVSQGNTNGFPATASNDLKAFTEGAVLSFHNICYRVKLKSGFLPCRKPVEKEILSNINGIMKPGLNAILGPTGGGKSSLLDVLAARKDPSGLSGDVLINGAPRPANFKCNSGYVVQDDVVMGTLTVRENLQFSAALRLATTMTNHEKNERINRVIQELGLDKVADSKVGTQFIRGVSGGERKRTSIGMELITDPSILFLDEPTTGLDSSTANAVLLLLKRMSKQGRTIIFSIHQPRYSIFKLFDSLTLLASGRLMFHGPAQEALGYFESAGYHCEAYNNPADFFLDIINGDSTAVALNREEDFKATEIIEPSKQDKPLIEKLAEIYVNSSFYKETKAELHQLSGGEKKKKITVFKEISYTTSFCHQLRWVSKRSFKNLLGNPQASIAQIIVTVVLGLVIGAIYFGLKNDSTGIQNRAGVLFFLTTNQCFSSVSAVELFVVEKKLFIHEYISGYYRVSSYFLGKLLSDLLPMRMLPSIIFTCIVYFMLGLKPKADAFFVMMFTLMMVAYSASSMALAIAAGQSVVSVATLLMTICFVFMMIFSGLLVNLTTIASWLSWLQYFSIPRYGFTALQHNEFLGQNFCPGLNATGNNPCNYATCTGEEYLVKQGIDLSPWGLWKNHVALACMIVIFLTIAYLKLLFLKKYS

[6] = tested on: MDA-MB-231/empty vector cells; assay: Topotecan accumulation by flow microfluorimetry in MDA-MB-231/empty vector cells; type: cell-based; settings: MDA-MB-231 cells transfected with empty vector
[7] = tested on: MDA-MB-231/empty vector cells; assay: Clonogenic assay with topotecan plus lapatinib in MDA-MB-231/empty vector cells; type: cell-based; settings: MDA-MB-231 cells transfected with empty vector, 1 µmol/L lapatinib, 24 h
Pgp [8] = target: Pgp (Cricetulus griseus, UniProt P21448); assay: Topotecan accumulation by flow microfluorimetry in CH^RC5 cells; type: cell-based, Chinese hamster; settings: 1,000 nmol/L lapatinib, n = 3
Sequence of Pgp (Cricetulus griseus, UniProt P21448) (P21448 whole entry): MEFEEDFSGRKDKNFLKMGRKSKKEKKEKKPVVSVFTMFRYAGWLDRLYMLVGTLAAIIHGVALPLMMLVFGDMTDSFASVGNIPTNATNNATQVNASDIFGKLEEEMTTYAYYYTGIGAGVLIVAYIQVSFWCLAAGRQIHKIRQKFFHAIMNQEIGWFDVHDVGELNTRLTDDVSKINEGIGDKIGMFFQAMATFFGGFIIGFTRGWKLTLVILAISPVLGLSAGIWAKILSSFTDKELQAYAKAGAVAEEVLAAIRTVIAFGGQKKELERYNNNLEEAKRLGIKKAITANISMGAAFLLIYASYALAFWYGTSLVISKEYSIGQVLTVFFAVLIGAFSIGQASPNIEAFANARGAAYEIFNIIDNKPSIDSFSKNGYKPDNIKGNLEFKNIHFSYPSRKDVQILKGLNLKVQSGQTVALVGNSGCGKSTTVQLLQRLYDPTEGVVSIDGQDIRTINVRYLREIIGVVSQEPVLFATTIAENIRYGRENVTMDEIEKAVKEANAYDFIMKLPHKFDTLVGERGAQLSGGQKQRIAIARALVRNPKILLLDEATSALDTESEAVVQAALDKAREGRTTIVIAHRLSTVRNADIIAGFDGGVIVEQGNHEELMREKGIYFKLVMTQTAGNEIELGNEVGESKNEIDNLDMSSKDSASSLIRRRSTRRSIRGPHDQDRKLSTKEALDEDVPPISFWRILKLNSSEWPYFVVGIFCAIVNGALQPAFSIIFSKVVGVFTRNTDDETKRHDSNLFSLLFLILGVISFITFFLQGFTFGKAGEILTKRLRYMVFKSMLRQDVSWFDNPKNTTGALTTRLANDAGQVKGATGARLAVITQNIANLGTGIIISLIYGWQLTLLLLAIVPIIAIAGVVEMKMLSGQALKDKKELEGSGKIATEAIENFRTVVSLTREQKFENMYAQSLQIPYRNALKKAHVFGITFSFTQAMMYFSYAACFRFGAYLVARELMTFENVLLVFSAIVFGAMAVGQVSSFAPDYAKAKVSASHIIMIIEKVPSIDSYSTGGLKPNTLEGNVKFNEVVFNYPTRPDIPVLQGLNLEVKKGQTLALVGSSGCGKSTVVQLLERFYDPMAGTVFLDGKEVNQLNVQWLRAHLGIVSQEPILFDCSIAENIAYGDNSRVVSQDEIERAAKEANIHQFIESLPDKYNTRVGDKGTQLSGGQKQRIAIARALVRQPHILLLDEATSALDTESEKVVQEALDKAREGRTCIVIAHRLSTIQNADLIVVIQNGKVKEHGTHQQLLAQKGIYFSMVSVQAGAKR

AuxB1 cells = assay: Topotecan accumulation by flow microfluorimetry in AuxB1 cells; type: cell-based, Chinese hamster; settings: AuxB1 cells (lower Pgp), compared with CH^RC5
[9] = type: in vivo, human; settings: fit of CLNRF ratio versus lapatinib steady-state Cmin, ±35%
Pgp [10] = settings: cited from earlier work
BCRP [11] = target: T1, BCRP; settings: read-out: in vitro Ki for inhibition of BCRP; cited from earlier work
[12] = cited from earlier work
[13] = geometric least squares mean ratio and 90% CI

CC[C@@]1(O)C(=O)OCc2c1cc1n(c2=O)Cc2cc3c(CN(C)C)c(O)ccc3nc2-1 [topotecan]
inhibition of BT474 tumor growth ([1]; topotecan alone 6 mg/kg i.p. every 4 d × 3, study 2): 53% | inhibition of BT474 tumor growth ([1]; topotecan alone 10 mg/kg i.p. every 4 d × 3, study 1): 66% | inhibition of BT474 tumor growth ([1]; topotecan alone 10 mg/kg i.p. every 4 d × 3, study 2): 65% | MTD and recommended phase II dose of topotecan in the combination ([2]; i.v. on days 1, 8, 15 of a 28-day cycle): 3.2 mg/m^2 | MTD for topotecan alone ([3]; × 3): 4 mg/m^2/wk | topotecan doses at which neutropenia is the principal toxicity [3]: above 4 mg/m^2/wk | increase of topotecan AUC0–24 h in the presence of lapatinib ([4]; (7–29%)): 18% | decrease of topotecan CLNRF when administered with lapatinib ([4]; (12–32%)): 22% | decrease in topotecan CLp when administered with lapatinib ([4]; day 8 versus day 1): 16% | Topotecan AUC0–24 h, day 8:day 1 ratio [4, 13]: 1.18 (1.07–1.29) | Topotecan CLNRF, day 8:day 1 ratio [4, 13]: 0.78 (0.68–0.88) | Topotecan CLp, day 8:day 1 ratio [4, 13]: 0.84 (0.76–0.92) | Topotecan Cmax, day 8:day 1 ratio [4, 13]: 0.79 (0.66–0.92) | Topotecan Vss, day 8:day 1 ratio [4, 13]: 0.99 (0.90–1.08) | Topotecan t1/2, day 8:day 1 ratio [4, 13]: 1.01 (0.96–1.06) | AUC(0-t) ([4]; human, plasma, intravenous, Topotecan AUC0–24 h, lapatinib + topotecan (day 8)): 510 ng·h/mL | AUC(0-t) ([4]; human, plasma, intravenous, Topotecan AUC0–24 h, topotecan alone (day 1)): 432 ng·h/mL | Cmax ([4]; human, plasma, intravenous, lapatinib + topotecan (day 8)): 128 ng/mL | Cmax ([4]; human, plasma, intravenous, topotecan alone (day 1)): 162 ng/mL | half-life ([4]; human, plasma, intravenous, Topotecan t1/2, lapatinib + topotecan (day 8)): 4.35 h | half-life ([4]; human, plasma, intravenous, Topotecan t1/2, topotecan alone (day 1)): 4.3 h | Topotecan CLNRF ([4]; lapatinib + topotecan (day 8)): 4.11 (2.72–5.50) L/h/m^2 | Topotecan Vss ([4]; lapatinib + topotecan (day 8)): 30.1(23.9–36.3) L/m^2 | Topotecan CLp ([4]; lapatinib + topotecan (day 8)): 6.14 L/h/m^2 | Topotecan CLp ([4]; lapatinib + topotecan (day 8), listed as Topotecan): 6.14 (4.27–8.01) L/h/m^2 | topotecan CLNRF as % of CLp ([4]; topotecan administered alone): 72% | Topotecan CLNRF ([4]; topotecan alone (day 1)): 5.25 (3.99–6.51) L/h/m^2 | Topotecan Vss ([4]; topotecan alone (day 1)): 30.5 (26.5–34.5) L/m^2 | Topotecan CLp ([4]; topotecan alone (day 1)): 7.28 L/h/m^2 | Topotecan CLp ([4]; topotecan alone (day 1), listed as Topotecan): 7.28 (5.35–8.91) L/h/m^2 | topotecan CLNRF as % of CLp ([4]; topotecan and lapatinib administered together): 66%

CS(=O)(=O)CCNCc1ccc(-c2ccc3ncnc(Nc4ccc(OCc5cccc(F)c5)c(Cl)c4)c3c2)o1 [lapatinib]
EC50 (BCRP [5]): 250 nM | effect on intracellular topotecan [6]: little effect | effect on topotecan-induced inhibition of colony formation [7]: little effect | intracellular topotecan, % of steady-state accumulation in the absence of lapatinib (Pgp [8]): 220 ± 20% | effect on intracellular topotecan (AuxB1 cells): more modest | inhibition of BT474 tumor growth ([1]; lapatinib 30 mg/kg oral twice daily 21 d, study 2, day 70): 26% | inhibition of BT474 tumor growth ([1]; lapatinib 60 mg/kg oral twice daily 21 d, study 1, day 56): 79% | inhibition of BT474 tumor growth ([1]; lapatinib 100 mg/kg oral twice daily 21 d, study 1, day 56): 77% | inhibition of BT474 tumor growth ([1]; lapatinib 100 mg/kg oral twice daily 21 d, study 2, day 70): 82% | MTD and recommended phase II dose of lapatinib in the combination ([2]; for 28 days of a 28-day cycle): 1,250 mg/d | Ki (lapatinib concentration producing 50% inhibition of topotecan CLNRF) [9]: 2,349 ng/mL | in vitro Ki for inhibition of Pgp (Pgp [10]): 2,300 ng/mL | Ki (Pgp [10]; read-out: in vitro Ki for inhibition of Pgp): 3900 nM | Ki (BCRP [11]): 24.1 nM and 25 nM | Lapatinib AUC in mice ([12]; 30 mg/kg orally twice daily): 5000 ng·h/mL | Lapatinib Cmax in mice ([12]; 30 mg/kg orally twice daily): 1000 ng/mL | Lapatinib AUC in mice ([12]; 60 mg/kg orally twice daily): 29000 ng·h/mL | Lapatinib Cmax in mice ([12]; 60 mg/kg orally twice daily): 4000 ng/mL | Lapatinib AUC in mice ([12]; 100 mg/kg orally twice daily): 94000 ng·h/mL | Lapatinib Cmax in mice ([12]; 100 mg/kg orally twice daily): 9000 ng/mL | dose up to which lapatinib was well tolerated in phase I trials ([3]; diarrhea and rash dose limiting): up to 1,800 mg/d | AUC(0-t) ([4]; human, plasma, oral, Lapatinib AUC0–24 h, lapatinib + topotecan (day 8)): 31700 ng·h/mL | AUC(0-t) ([4]; human, plasma, oral, Lapatinib AUC0–24 h, lapatinib alone (day 7)): 23300 ng·h/mL | Tmax ([4]; human, plasma, oral, Lapatinib Tmax, lapatinib alone (day 7), median and range): 3 h
